Source: article PMC7576618 (British Journal of Clinical Pharmacology, 2020)
Values joined by “and” are separate entries in the source; they are usually repeats but may differ in a detail not shown here. Equal entries are not always repeated. “Also recorded” adds a separate entry of the source.

Assays:
[1] = tested on: phencyclidine‐induced locomotor hyperactivity in rats; test: Phencyclidine-induced locomotor hyperactivity; conditions: MGS0008 1, 3, 10 mg kg^-1 p.o., phencyclidine 3 mg kg^-1 s.c.
[2] = rats; cited from earlier work
[3] = tested on: memantine‐increased 2‐deoxy‐D‐glucose uptake in the prefrontal cortex; test: Memantine-induced 2-deoxy-D-glucose uptake in the prefrontal cortex; conditions: mice; MGS0008 0.3, 1, 3 mg kg^-1 s.c.; memantine 30 mg kg^-1 s.c.
[4] = MAD study: plasma pharmacokinetics after multiple oral dose titration of TS-134; format: in vivo, human; conditions: for AUC / half-life: both, human, plasma, oral, MAD Day 14, fed; for AUC: AUC0‐tau, mean (CV[%]); for half-life: t1/2, mean (CV[%])
[5] = MAD study: urinary excretion; format: in vivo, human; conditions: urine, MAD Day 14; for CL renal: both, human, oral, CLr, mean (CV[%])
[6] = tested on: spontaneous locomotor activity in rats; test: Spontaneous locomotor activity; conditions: doses similar to those which block psychostimulants‐induced hyperlocomotion
mGlu3 receptor = conditions: read-out: in vitro EC50 for mGlu3 receptor; authors' assay system; cited from earlier work
[7] = SAD study Part B: CSF pharmacokinetics of MGS0008 after 10 mg TS-134; format: in vivo, human; conditions: 10 mg TS‐134 under fed condition
[8] = SAD study: plasma pharmacokinetics after single oral TS-134; format: in vivo, human; conditions: for AUC / Cmax / half-life / Tmax: both, human, plasma; for AUC: AUC0‐inf; for AUC / Cmax: mean (CV[%]); for Tmax: median
[9] = tested on: MK‐801‐induced social recognition deficits in rats; test: MK-801-induced social recognition deficits; conditions: MGS0008 1, 3, 10 mg kg^-1 p.o., MK-801 0.2 mg kg^-1 i.p.
[10] = SAD study: urinary excretion; format: in vivo, human; conditions: for CL renal: both, human, oral
[11] = tested on: methamphetamine‐induced locomotor hyperactivity in rats; test: Methamphetamine-induced locomotor hyperactivity; conditions: MGS0008 1, 3, 10 mg kg^-1 p.o., methamphetamine 1 mg kg^-1 s.c.
[12] = oral, 5 mg, SAD Parts A and C, 5 mg fasted (n = 6)
[13] = oral, 10 mg, SAD Parts A and C, 10 mg fasted (n = 4)
[14] = oral, 10 mg, SAD Parts A and C, 10 mg fed (n = 3)
[15] = oral, 20 mg, SAD Parts A and C, 20 mg fasted (n = 3)
[16] = oral, 20 mg, SAD Parts A and C, 20 mg fed (n = 3)

## N[C@]1(C(=O)O)[C@H]2[C@@H](C[C@@H]1F)[C@@H]2C(=O)O [MGS0008, (1S,2S,3S,5R,6S)‐2‐amino‐3‐fluorobicyclo[3.1.0]hexane‐2,6‐dicarboxylic acid]
[1]
  effect on phencyclidine‐induced locomotor hyperactivity: significantly attenuated
[2]
  CSF‐to‐plasma AUC ratio: 2.8%
  presence in the cerebrospinal fluid (CSF) after oral administration of MGS0008: detected
[3]
  effect on memantine‐increased 2‐deoxy‐D‐glucose uptake (2‐DG6P) in the prefrontal cortex: attenuated
[4]; MAD, 5–80 mg
  dose proportionality of steady‐state plasma Cmax and AUC: increased dose proportionally; also recorded: dose proportional increases
[4]; after initiating multiple doses of target dose levels, data not shown
  time for plasma trough concentrations to reach steady state: ≤ 2 days
[4]; 5 mg, 5 mg (n = 8)
  AUC: 233 ng·h/mL
  half-life: 581 min
[4]; 10 mg, 10 mg (n = 8)
  AUC: 475 ng·h/mL
  half-life: 655 min
[4]; 20 mg, 20 mg (n = 8)
  AUC: 817 ng·h/mL
  half-life: 624 min
[4]; 40 mg, 40 mg (n = 8)
  AUC: 1640 ng·h/mL
  half-life: 617 min
[4]; 60 mg, 60 mg (n = 8)
  AUC: 3100 ng·h/mL
  half-life: 566 min
[5]; 5 mg, 5 mg (n = 8)
  CL renal: 85.2 mL/min
[5]; 10 mg, 10 mg (n = 8)
  CL renal: 88.2 mL/min
[5]; 20 mg, 20 mg (n = 8)
  CL renal: 103 mL/min
[5]; 40 mg, 40 mg (n = 8)
  CL renal: 93.3 mL/min
[5]; 60 mg, 60 mg (n = 8)
  CL renal: 78.7 mL/min
[5]; 5 mg (n = 8)
  Fe (0–24), mean (CV[%]): 48.03 (36.10) %
[5]; 10 mg (n = 8)
  Fe (0–24), mean (CV[%]): 51.79 (24.95) %
[5]; 20 mg (n = 8)
  Fe (0–24), mean (CV[%]): 50.42 (20.58) %
[5]; 40 mg (n = 8)
  Fe (0–24), mean (CV[%]): 48.06 (13.48) %
[5]; 60 mg (n = 8)
  Fe (0–24), mean (CV[%]): 50.48 (24.14) %
[5]; 80 mg Cohort 5 (n = 7)
  Fe (0–24), mean (CV[%]): 43.69 (36.76) %
[5]; 80 mg Cohort 6 (n = 6)
  Fe (0–24), mean (CV[%]): 37.21 (35.47) %
[6]
  effect on spontaneous locomotor activity: significantly reduced
mGlu3 receptor
  EC50: 45.4 nM
[7]
  mean CSF Cmax (molar): 6.12 nM
[8]; SAD, 10 and 20 mg TS‐134
  reduction of plasma AUC in the fed group (food effect): ≤ 25%
  reduction of plasma Cmax in the fed group (food effect): up to 57%
[8]; [12]
  AUC: 278 ng·h/mL
  Cmax: 25.9 ng/mL
  Tmax: 2 h
[8]; oral, 5 mg, t1/2, mean (CV[%]), SAD Parts A and C, 5 mg fasted (n = 6)
  half-life: 465 min
[8]; [13]
  AUC: 535 ng·h/mL
  Cmax: 60.6 ng/mL
  Tmax: 2 h
[8]; [14]
  AUC: 390 ng·h/mL
  Cmax: 28.1 ng/mL
  Tmax: 4 h
[8]; oral, 10 mg, t1/2, mean (CV[%]), SAD Part B, 10 mg fed (n = 7)
  half-life: 510 min
[8]; oral, 10 mg, t1/2, mean (CV[%]), SAD Parts A and C, 10 mg fasted (n = 4)
  half-life: 504 min
[8]; oral, 10 mg, t1/2, mean (CV[%]), SAD Parts A and C, 10 mg fed (n = 3)
  half-life: 522 min
[8]; [15]
  AUC: 840 ng·h/mL
  Cmax: 89.4 ng/mL
  Tmax: 3 h
[8]; [16]
  AUC: 677 ng·h/mL
  Cmax: 60.2 ng/mL
  Tmax: 2 h
[8]; oral, 20 mg, t1/2, mean (CV[%]), SAD Parts A and C, 20 mg fasted (n = 3)
  half-life: 418 min
[8]; oral, 20 mg, t1/2, mean (CV[%]), SAD Parts A and C, 20 mg fed (n = 3)
  half-life: 415 min
[8]; po, terminal half‐life (t1/2) in plasma, single and multiple oral administration of TS‐134 (SAD and MAD studies)
  half-life: ~600 min
[8]; molar ratio, SAD and MAD studies
  plasma Cmax of MGS0008 relative to that of MGS0274: approximately 6 fold
[8]; molar ratio, all treatment groups with or without food
  plasma AUC of MGS0008 relative to that of MGS0274: approximately 30 fold
[9]
  effect on MK‐801‐induced impaired social memory: significantly reversed
[10]; SAD and MAD studies, dose range 5–80 mg
  urinary excretion rate, % of the administered doses: 29.38 to 69.01% and 29.38–69.01%
[10]; urine and plasma, renal clearance, range, SAD and MAD studies
  CL renal: 70.6 to 103 mL/min
[10]; urine, 5 mg, CLr, mean (CV[%]), SAD Parts A and C, 5 mg fasted (n = 6)
  CL renal: 101 mL/min
[10]; urine, 10 mg, CLr, mean (CV[%]), SAD Parts A and C, 10 mg fasted (n = 4)
  CL renal: 89.8 mL/min
[10]; urine, 10 mg, CLr, mean (CV[%]), SAD Parts A and C, 10 mg fed (n = 3)
  CL renal: 103 mL/min
[10]; urine, 20 mg, CLr, mean (CV[%]), SAD Parts A and C, 20 mg fasted (n = 3)
  CL renal: 73.9 mL/min
[10]; urine, 20 mg, CLr, mean (CV[%]), SAD Parts A and C, 20 mg fed (n = 3)
  CL renal: 70.6 mL/min
[10]; urine, SAD Part B, 10 mg fed (n = 7)
  Fe (0–48), mean (CV[%]): 55.77 (15.99) %
[10]; urine, SAD Parts A and C, 5 mg fasted (n = 6)
  Fe (0–48), mean (CV[%]): 69.01 (10.23) %
[10]; urine, SAD Parts A and C, 10 mg fasted (n = 4)
  Fe (0–48), mean (CV[%]): 60.61 (36.10) %
[10]; urine, SAD Parts A and C, 10 mg fed (n = 3)
  Fe (0–48), mean (CV[%]): 49.65 (38.35) %
[10]; urine, SAD Parts A and C, 20 mg fasted (n = 3)
  Fe (0–48), mean (CV[%]): 38.55 (65.52) %
[10]; urine, SAD Parts A and C, 20 mg fed (n = 3)
  Fe (0–48), mean (CV[%]): 29.38 (52.53) %
[11]
  effect on methamphetamine‐induced locomotor hyperactivity: significantly attenuated
